Source: patent publication US10047105B2, “Gyrase inhibitors” (Merck Sharp & Dohme Corp., priority 2009, dated 2018)
Values after ≈ are worked out from the molar mass of the structure shown.

Columns and labels:
Type in all cases: cell-based
[1] = test system: S. aureus ATCC 13709; assay: MIC, antibacterial potency, S. aureus; settings: S. aureus (SA); in µg/mL
[2] = test system: S. pneumoniae ATCC 51916; assay: MIC, S. pneumoniae; settings: S. pneumoniae (Spn52); in µg/mL
[3] = test system: E. coli 8 ATCC 25922; assay: MIC, E. coli 8 (wt); settings: E. coli 8 (EC8)

MIC, SA [1]	MIC Spn52 [2]	MIC EC8 [3]	Structure (SMILES)
32	32		CCc1[nH]c2nc(Sc3cnc4cccnc4c3)nc(N3CCC(N)(C(=O)N[C@H](CO)C(=O)OC)C3)c2c1Cl (stereo partly drawn) [700,889]
2	4		CCc1[nH]c2nc(Sc3cnc4cccnc4c3)nc(N3C[C@H](C4CCCCC4)[C@@H](N)C3)c2c1Cl [700,890]
>64	>64		CCc1[nH]c2nc(Sc3cnc4cccnc4c3)nc(N3CCC(N)(C(=O)N[C@H](CO)C(=O)O)C3)c2c1Cl (stereo partly drawn) [700,891]
>64	>64		CCc1[nH]c2nc(Oc3cccc(C#N)c3)nc(/C=C\c3cccc(OC)c3)c2c1Cl [700,892]
4	8		CCc1[nH]c2nc(Oc3cccc(C#N)c3)nc(C(C)=O)c2c1Cl [700,893]
32	8		CCc1[nH]c2nc(Sc3cnc4c(NCC5OCCO5)nc(C)nc4c3)nc(N3CC[C@@H](N)C3)c2c1Cl [700,894]
<=0.5	<=0.5		CCc1[nH]c2nc(Oc3cncc(C#N)c3)nc(Oc3cncnc3)c2c1Br [700,899]
8	8		CCc1[nH]c2nc(Sc3cnc4nccnc4c3)nc(N3CCC4(CCNCC4)C3)c2c1Cl [700,900]
8	4		CCc1[nH]c2nc(Sc3ccc4nccnc4c3)nc(N3CCC4(CCNCC4)C3)c2c1Cl [700,901]
32	64		CCc1[nH]c2nc(Sc3ccc4c(N5CC[C@@H](N)C5)ncnc4c3)nc(N3CC[C@@H](N)C3)c2c1Cl [700,903]
32	>64		CCc1[nH]c2nc(Sc3ccc4c(N5CC(CN)C5)ncnc4c3)nc(N3CC[C@@H](N)C3)c2c1Cl [700,904]
2	4	> 64 µg/mL	CCc1[nH]c2nc(Sc3cnc4c(=N)n(CC5OCCO5)c(C)nc4c3)nc(N3CC[C@@H](N)C3)c2c1Cl [700,906]
8	16	64 µg/mL (≈ 185 µM)	CCc1[nH]c2nc(Oc3cncnc3)nc(N3CC(N)C3)c2c1Cl [700,907]
8	16	> 64 µg/mL	CCc1[nH]c2nc(Oc3cncnc3)nc(N3CCCC3CO)c2c1Cl (stereo not drawn) [700,908]
1	4	> 64 µg/mL	CCc1[nH]c2nc(Oc3cncnc3)nc(N3CC(Cc4cncnc4)C3)c2c1Cl [700,909]
>64	>64	> 64 µg/mL	CCc1[nH]c2nc(Oc3cncnc3)nc(N3CCC(N)C3)c2c1Cl (stereo not drawn) [700,910]
1	2	> 32 µg/mL	CCc1[nH]c2nc(Oc3cncnc3)nc(N3CC4C(N)C4C3)c2c1Cl (stereo not drawn) [700,911]
8	>64	32 µg/mL (≈ 55.7 µM)	CCc1[nH]c2nc(Sc3ccc4c(Oc5cccc(CNC)c5)cc(C)nc4c3)nc(N3CC[C@@H](N)C3)c2c1Cl [700,912]
2	2	> 64 µg/mL	CCc1[nH]c2nc(Sc3ccc4c(-n5ccnc5)cc(C)nc4c3)nc(N3CC[C@@H](N)C3)c2c1Cl [700,913]
64	>64	32 µg/mL (≈ 61.1 µM)	CCc1[nH]c2nc(Sc3ccc4nc(C)nc(N5CC(CN)C5)c4c3)nc(N3CC[C@@H](N)C3)c2c1Cl [700,914]
64	>64	> 64 µg/mL	CCc1[nH]c2nc(Sc3ccc4nc(C)nc(N5CC6CNC6C5)c4c3)nc(N3CC[C@@H](N)C3)c2c1Cl (stereo partly drawn) [700,916]
4	4	8 µg/mL (≈ 13.9 µM)	CCc1[nH]c2nc(Sc3ccc4c(N5CC(CN)C5)cc(C(F)(F)F)nc4c3)nc(N3CC[C@@H](N)C3)c2c1Cl [700,917]
2	8	> 64 µg/mL	CCc1[nH]c2nc(Sc3ccc4[nH]c(C(F)(F)F)cc(=O)c4c3)nc(N3CC[C@@H](N)C3)c2c1Cl [700,918]
>64	>64	> 64 µg/mL	CCc1[nH]c2nc(Sc3ccc4[nH]cc(C#N)c(=O)c4c3)nc(N3CC[C@@H](N)C3)c2c1Cl [700,919]
>64	>64	> 64 µg/mL	CCc1[nH]c2nc(Sc3ccc4[nH]cc(C(=O)O)c(=O)c4c3)nc(N3CC[C@@H](N)C3)c2c1Cl [700,920]
2	4	> 64 µg/mL	CCc1[nH]c2nc(Sc3cnc4cccnc4c3)nc(N3CCC(NCCN)C3)c2c1Cl (stereo not drawn) [700,921]
32	64	4 µg/mL (≈ 7.63 µM)	CCc1[nH]c2nc(Sc3ccc4c(N5CC(CN)C5)nc(C)nc4c3)nc(N3CC[C@@H](N)C3)c2c1Cl [700,922]

MIC, SA [1]	MIC Spn52 [2]	MIC EC8 [3]	Structure (SMILES)
16	8	64 µg/mL (≈ 118 µM)	CCc1[nH]c2nc(Sc3cnc4c(=N)n(CCCN(C)C)c(C)nc4c3)nc(N3CC[C@@H](N)C3)c2c1Cl [700,923]
16	4	64 µg/mL (≈ 121 µM)	CCc1[nH]c2nc(Sc3cnc4c(=N)n(CCN(C)C)c(C)nc4c3)nc(N3CC[C@@H](N)C3)c2c1Cl [700,924]
4	32	> 64 µg/mL	CCOC(=O)/C=C/c1ccc(Sc2nc(N3CC[C@@H](N)C3)c3c(Cl)c(CC)[nH]c3n2)cc1F [700,925]
<=0.5	1	> 64 µg/mL	CCc1[nH]c2nc(Oc3cncc(C#N)c3)nc(Cc3cccc(C#N)c3)c2c1Cl [700,927]
2	8	16 µg/mL (≈ 29.8 µM)	CCc1[nH]c2nc(Sc3ccc4c(c3)c(=O)c(C#N)cn4CCN(C)C)nc(N3CC[C@@H](N)C3)c2c1Cl [700,928]
16	64	32 µg/mL (≈ 58.1 µM)	CCc1[nH]c2nc(Sc3ccc4c(c3)c(=O)c(C#N)cn4CCCN(C)C)nc(N3CC[C@@H](N)C3)c2c1Cl [700,929]
8	16	> 64 µg/mL	CCc1[nH]c2nc(Oc3cccc(C#N)c3)nc(C(C)O)c2c1Cl (stereo not drawn) [700,930]
>64	>64	> 64 µg/mL	CCc1[nH]c2nc(Oc3cncc(C(=O)O)c3)nc(Oc3cncnc3)c2c1Cl [700,932]
2	4	> 64 µg/mL	CCc1[nH]c2nc(Oc3cncc(C#N)c3)nc(Oc3cc(C#N)cc(OC)c3)c2c1Br [700,933]
4	16	> 64 µg/mL	CCc1[nH]c2nc(Oc3cncc(OC)c3)nc(N3CC(O)C3)c2c1Cl [700,934]
2	32	> 64 µg/mL	CCc1[nH]c2nc(Oc3cnc4ccoc4c3)nc(N3CC(N)C3)c2c1Br [700,935]
64	32	> 64 µg/mL	CCc1[nH]c2nc(Oc3cnc4ccoc4c3)nc(N3CC4CNC4C3)c2c1Cl (stereo not drawn) [700,936]
<=0.5	1	> 64 µg/mL	CCc1[nH]c2nc(Oc3cncc(OC)c3)nc(Oc3cncc(OC)c3)c2c1Br [700,937]
<=0.5	<=0.5	> 64 µg/mL	CCc1[nH]c2nc(Oc3ccc4nccnc4c3)nc(Oc3ccc4nccnc4c3)c2c1Br [700,938]
<=0.5	1	> 64 µg/mL	CCc1[nH]c2nc(Oc3cnc4c(c3)ncn4C)nc(Oc3cnc4c(c3)ncn4C)c2c1Br [700,939]
2	8	8 µg/mL (≈ 16.1 µM)	CCc1[nH]c2nc(Sc3ccc4cc5c([n+]([O-])c4c3)CCNC5)nc(N3CC[C@@H](N)C3)c2c1Cl [700,940]
4	8	> 64 µg/mL	CCc1[nH]c2nc(Oc3cncnc3)nc(N3CC4CNC4C3)c2c1Cl (stereo not drawn) [700,941]
16	16	8 µg/mL (≈ 16.1 µM)	CCc1[nH]c2nc(Sc3ccc4c(N5CC(N)C5)ncnc4c3)nc(N3CC[C@@H](N)C3)c2c1Cl [700,942]
32	32	64 µg/mL (≈ 110 µM)	CCc1[nH]c2nc(Sc3cnc4c(=N)n(CCCN5CCC(N)C5)c(C)nc4c3)nc(N3CC[C@@H](N)C3)c2c1Cl (stereo partly drawn) [700,943]
8	8	> 64 µg/mL	CCc1[nH]c2nc(Oc3ccc4c(N5CC(N)C5)ncnc4c3)nc(Oc3cccc(C#N)c3)c2c1Br [700,944]
<=0.5	<=0.5	> 64 µg/mL	CCc1[nH]c2nc(Oc3cncc(C#N)c3)nc(Oc3cncc(OC)c3)c2c1Br [700,945]
>64	>64	> 64 µg/mL	CCc1[nH]c2nc(Oc3cccc(C#N)c3)nc(C(C)N)c2c1Cl (stereo not drawn) [700,946]
>64	64	> 64 µg/mL	CC(=O)c1nc(Oc2cccc(C#N)c2)nc2[nH]c(C(C)O)c(Cl)c12 (stereo not drawn) [700,947]
<=0.5	4	> 16 µg/mL	CCc1[nH]c2nc(Oc3ccc4nccnc4c3)nc(N3CC(O)C3)c2c1Cl [700,948]
<=0.5	4	> 64 µg/mL	CCc1[nH]c2nc(Oc3ccc4sc(C)nc4c3)nc(Oc3cccc(C#N)c3)c2c1Br [700,949]
>64	>64	> 64 µg/mL	CCc1[nH]c2nc(Oc3cccc(C#N)c3)nc(C(C)N3CCC(N)C3)c2c1Cl (stereo not drawn) [700,950]

Structure (SMILES)	MIC, SA [1]	MIC Spn52 [2]	MIC EC8 [3]
CCc1[nH]c2nc(Sc3cnc4cccnc4c3)nc(N3CC[C@@H](N)C3)c2c1Cl.O=C(O)C(F)(F)F.O=C(O)C(F)(F)F [700,795]	<=0.5	<=0.5	8 µg/mL
CCc1[nH]c2nc(Oc3cncnc3)nc(Oc3cncc(C#N)c3)c2c1Cl [700,898]	<=0.5	2	
